Results published in paper PMC6940896, “Development of a Highly Efficient Hybrid Peptide That Increases Immunomodulatory Activity Via the TLR4-Mediated Nuclear Factor-κB Signaling Pathway” (International Journal of Molecular Sciences, 2019).

What was measured:
[1] = Ex vivo stability in plasma; format: in vitro ADME; details: rat plasma, in vitro, 37 °C, HPLC, log-linear regression; mean ± SEM of three biological replicates; read-out: t1/2, half-life in plasma (converted)
Experimental: The samples were collected into pre-chilled tubes containing 1 mL of acidic acetone (hydrochloric acid/acetone/H2O, 1:40:5, by volume). Subsequently, the mixture was centrifuged at 2 × 10^4 rpm at 4 °C for 20 min. The precipitates were dried in vacuo. The dried precipitates were dissolved in 0.5 mL of 1 M acetic acid. The peptide analysis was carried out according to the protocol for the study of Tα1 using HPLC [51]. The half-lives of the target peptides were calculated by a logarithm-linear regression analysis of the peptide concentrations.

peritoneal macrophages = assay: Peritoneal macrophage phagocytosis (neutral red uptake) in CTX-immunosuppressed mice; format: in vivo, mouse; details: peritoneal macrophages of mice, OD 540 nm, CTX 80 mg/kg ip days 1-3, peptide 10 mg/kg ip days 4-10, control group 55.67%, n = 12
Experimental: For the first 3 days, CTX (80 mg/kg mouse weight) was administered intraperitoneally once daily to establish the immunosuppressed animal model. From days 4 to 10 (7 days), peptides (10 mg/kg mouse weight) were administered intraperitoneally each day. The CTX group was only treated with CTX, and the control group was given sterile saline. The dose volume was 200 μL. Twenty-four hours after the last dose, the mice were killed and their tissues and blood collected for analysis.
Peritoneal macrophages were aseptically obtained from the different groups of mice by peritoneal lavage with 5 mL ice-cold phosphate-buffered saline (PBS). The peritoneal macrophages were further isolated by incubating peritoneal exudate cells at 37 °C in a moist atmosphere (5% CO2, 95% air) for 3 h to allow the cells to adhere. The adherent cells were washed twice and collected as peritoneal macrophages.
The phagocytic capacity of the peritoneal macrophages was measured by the neutral red uptake method [52]. […] The OD was measured using a microplate reader at 540 nm. The phagocytic rate was calculated in the following way:(4) hagocytic rate (%)=OD540(sample)/OD540(control) ×100% where OD540 (sample) is the absorbance at 540 nm by peptide-treated cells and OD540 (control) is the absorbance at 540 nm by the cells without peptides treated.

[2] = biological target: T1, recombinant TLR4/MD2 complex (UniProt Q9QUK6 26-638; Q9JHF9 19-160); assay: SPR; TLR4/MD2 immobilised by amino coupling on a ProteOn GLH chip (ProteOn XPR36); LTAa passed over at 0, 1.25, 2.5, 5 and 10 μM (methods print mM); 25 °C; PBS with 0.1% Tween 20 and 2% DMSO; 30 μL/min; global fit, homogeneous 1:1 model; details: both partners purified
T1 construct: Toll-like receptor 4 (TLR4) of the recombinant TLR4/MD2 complex; MD-2 (MD2, lymphocyte antigen 96) of the recombinant TLR4/MD2 complex; source: bought: R&D Systems
T1 sequence (looked up) 1: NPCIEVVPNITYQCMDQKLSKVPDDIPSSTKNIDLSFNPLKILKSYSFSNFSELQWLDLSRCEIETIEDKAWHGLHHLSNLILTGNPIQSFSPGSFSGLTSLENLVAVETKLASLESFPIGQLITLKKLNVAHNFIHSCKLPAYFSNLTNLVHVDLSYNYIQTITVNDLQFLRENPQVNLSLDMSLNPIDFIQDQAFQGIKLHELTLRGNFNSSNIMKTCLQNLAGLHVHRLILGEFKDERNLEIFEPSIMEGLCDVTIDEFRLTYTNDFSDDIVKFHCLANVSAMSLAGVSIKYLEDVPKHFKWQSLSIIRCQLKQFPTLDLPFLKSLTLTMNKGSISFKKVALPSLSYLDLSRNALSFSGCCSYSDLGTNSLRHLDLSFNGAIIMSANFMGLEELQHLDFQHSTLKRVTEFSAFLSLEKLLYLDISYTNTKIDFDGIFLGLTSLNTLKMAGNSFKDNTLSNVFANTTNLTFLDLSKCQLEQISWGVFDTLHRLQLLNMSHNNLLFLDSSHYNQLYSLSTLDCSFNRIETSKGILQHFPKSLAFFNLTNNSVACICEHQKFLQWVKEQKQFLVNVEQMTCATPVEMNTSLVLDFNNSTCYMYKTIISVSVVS
T1 sequence (looked up) 2: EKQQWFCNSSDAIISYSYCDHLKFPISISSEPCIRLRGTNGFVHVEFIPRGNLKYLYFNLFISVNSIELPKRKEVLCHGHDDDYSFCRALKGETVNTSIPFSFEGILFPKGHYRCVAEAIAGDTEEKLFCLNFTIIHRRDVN

CC[C@H](C)[C@H](NC(=O)[C@H](CCCCN)NC(=O)[C@H](CCC(=O)O)NC(=O)[C@H](CCCCN)NC(=O)[C@H](CO)NC(=O)[C@H](CCCCN)NC(=O)[C@H](CCCNC(=N)N)NC(=O)[C@H](Cc1ccccc1)NC(=O)[C@H](Cc1ccccc1)NC(=O)[C@H](CC(=O)O)NC(=O)CNC(=O)[C@H](CC(C)C)NC(=O)[C@@H](N)CC(C)C)C(=O)NCC(=O)N[C@@H](CCCCN)C(=O)N[C@@H](CCC(=O)O)C(=O)N[C@@H](Cc1ccccc1)C(=O)N[C@@H](CCCCN)C(=O)N[C@@H](CCCNC(=N)N)C(=O)N[C@H](C(=O)N[C@H](C(=O)N[C@@H](CCC(N)=O)C(=O)N[C@@H](CCCNC(=N)N)C(=O)N[C@H](C(=O)N[C@@H](CCCCN)C(=O)N[C@@H](CC(=O)O)C(=O)N[C@@H](Cc1ccccc1)C(=O)N[C@@H](CC(C)C)C(=O)N[C@@H](CCCNC(=N)N)C(=O)N[C@@H](CC(N)=O)C(=O)N[C@@H](CC(C)C)C(=O)N[C@H](C(=O)N1CCC[C@H]1C(=O)N[C@@H](CCCNC(=N)N)C(=O)N[C@H](C(=O)N[C@@H](CCC(=O)O)C(=O)N[C@@H](CO)C(=O)O)[C@@H](C)O)C(C)C)[C@@H](C)CC)C(C)C)[C@@H](C)CC [LL-37]
half-life [1]: 3.1 ± 0.87 h

O=P1(N(CCCl)CCCl)NCCCO1 (stereo not drawn) [CTX, cyclophosphamide, reference compound]
macrophage phagocytic rate (peritoneal macrophages): 31.93%

B1: LL-37-Tα1a hybrid peptide (LTAa) (peptide)
peptide: IGKEFKRIVQRIKDFLRNLVPRTEKEKKEVVE
notes: LL-37, human cationic host-defense peptide, residues 13-36; Thymosin alpha-1 (Tα1), residues 17-24 (Tα1a); (32 residues); source: synthetic peptide (solid-phase, KangLong Biochemistry; purity >95%)
Kd [2]: 49.1 pM
